Reference: patent publication US8148388B2, “2,4 (4,6) pyrimidine derivatives” (Janssen Pharmaceutica, N.V., priority 2004, dated 2012)

Key:
Type in all cases: biochemical
Abl (h) = Abl (h) (Homo sapiens, UniProt P00519); assay: Abl human kinase assay (glass-fiber filter); settings: test concentration of 10^−6M; for inhibition at 1 µM: read-out: C1 score (inhibition of Abl human)
cSRC (h) = cSRC (h) (Homo sapiens, UniProt P12931); assay: cSRC human kinase assay (glass-fiber filter); settings: test concentration of 10^−6M; for inhibition at 1 µM: read-out: C3 score (inhibition of cSRC human)
In short: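 Radiometric assay: kinase and substrate are incubated with [33P]ATP, with the reaction started by MgATP mix. The reaction is spotted on P30 filtermat, washed in 75 mM phosphoric acid and methanol, and the bound 33P is measured by scintillation counting.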

EGFR (h) = EGFR (h) (Homo sapiens, UniProt P00533); assay: EGFR human kinase assay (glass-fiber filter); settings: test concentration of 10^−6M; for inhibition at 1 µM: read-out: C4 score (inhibition of EGFR human)
In short: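 Human EGFR (5-10 mU) phosphorylated 0.1 mg/ml poly(Glu, Tyr) 4:1 in 8 mM MOPS pH 7.0, 0.2 mM EDTA, 10 mM MnCl2, 10 mM MgAcetate with [γ-33P]ATP at unspecified concentration. Incubation lasted 40 minutes at room temperature, was stopped with phosphoric acid, and filter-bound 33P was counted by scintillation.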

Fes (h) = Fes (h) (Homo sapiens, UniProt P07332); assay: Fes human kinase assay (glass-fiber filter); settings: test concentration of 10^−6M; for inhibition at 1 µM: read-out: C4 score (inhibition of Fes human)
In short: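 Human Fes (5–10 mU) was incubated with 0.1 mg/ml poly(Glu,Tyr) 4:1 in 8 mM MOPS pH 7.0, 0.2 mM EDTA, 10 mM Mg acetate and [γ-33P]ATP for 40 min at room temperature. The reaction was stopped with phosphoric acid, and substrate phosphorylation was quantified by filter binding and scintillation counting.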

Fms (h) = Fms (h) (Homo sapiens, UniProt P07333); assay: Fms human kinase assay (glass-fiber filter); settings: test concentration of 10^−6M; for inhibition at 1 µM: read-out: C7 score (inhibition of Fms human)
In short: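 Radiometric filter-binding assay: Fms (5-10 mU) with 250 μM peptide substrate and [γ-33P]ATP in 8 mM MOPS pH 7.0, 10 mM Mg acetate, 40 min at room temperature. Reaction stopped with phosphoric acid; substrate-bound 33P counted on P30 filtermat.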

Lck (h) = Lck (h) (Homo sapiens, UniProt P06239); assay: Lck human kinase assay (glass-fiber filter); settings: test concentration of 10^−6M; for inhibition at 1 µM: read-out: C9 score (inhibition of Lck human)
In short: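 Kinase activity measured as transfer of (^33P) from radiolabeled MgATP to substrate, captured on P30 glass-fiber filtermat, washed in 75 mM phosphoric acid and methanol, then scintillation counted.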

Yes (h) = Yes (h) (Homo sapiens, UniProt P07947); assay: Yes human kinase assay (glass-fiber filter); settings: test concentration of 10^−6M; for inhibition at 1 µM: read-out: C11 score (inhibition of Yes human)
In short: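 Yes (h) (5-10 mU) with 0.1 mg/ml poly(Glu, Tyr) 4:1 in 8 mM MOPS pH 7.0, 0.2 mM EDTA, 10 mM MgAcetate and [γ-^33P-ATP], 40 minutes at room temperature. Stopped with phosphoric acid; substrate-bound ^33P counted on glass-fiber filter by scintillation.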

Sequence of Yes (h) (P07947 whole entry): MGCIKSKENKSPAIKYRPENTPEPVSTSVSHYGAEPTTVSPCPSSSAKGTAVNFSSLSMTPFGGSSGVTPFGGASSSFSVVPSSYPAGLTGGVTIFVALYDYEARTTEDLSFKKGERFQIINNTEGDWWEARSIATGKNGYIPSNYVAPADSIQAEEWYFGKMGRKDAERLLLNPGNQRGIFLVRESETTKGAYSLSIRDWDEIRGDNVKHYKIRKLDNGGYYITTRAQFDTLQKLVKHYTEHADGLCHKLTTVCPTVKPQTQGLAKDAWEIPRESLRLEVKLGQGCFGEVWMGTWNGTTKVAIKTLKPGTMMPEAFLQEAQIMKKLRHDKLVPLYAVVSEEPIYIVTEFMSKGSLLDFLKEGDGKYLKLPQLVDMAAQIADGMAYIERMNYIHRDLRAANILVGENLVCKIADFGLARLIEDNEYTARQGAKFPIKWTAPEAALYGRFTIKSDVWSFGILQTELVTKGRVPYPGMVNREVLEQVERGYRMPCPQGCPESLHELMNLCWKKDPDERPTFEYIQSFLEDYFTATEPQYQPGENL
Sequence of Lck (h) (P06239 whole entry): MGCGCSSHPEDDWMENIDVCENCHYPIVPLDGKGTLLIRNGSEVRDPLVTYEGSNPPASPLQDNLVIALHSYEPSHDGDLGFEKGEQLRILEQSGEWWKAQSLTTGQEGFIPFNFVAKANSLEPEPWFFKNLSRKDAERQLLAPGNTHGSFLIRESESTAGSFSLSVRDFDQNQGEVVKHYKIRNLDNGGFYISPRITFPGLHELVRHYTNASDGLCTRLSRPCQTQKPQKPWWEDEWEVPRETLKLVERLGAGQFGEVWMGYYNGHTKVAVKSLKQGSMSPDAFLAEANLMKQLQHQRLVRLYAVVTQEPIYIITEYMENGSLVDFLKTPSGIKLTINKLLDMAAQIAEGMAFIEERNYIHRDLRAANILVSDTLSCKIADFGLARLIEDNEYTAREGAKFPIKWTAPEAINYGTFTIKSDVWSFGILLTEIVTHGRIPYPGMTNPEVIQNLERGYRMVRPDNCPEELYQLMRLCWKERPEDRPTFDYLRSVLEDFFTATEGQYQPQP
Sequence of Fms (h) (P07333 20-972): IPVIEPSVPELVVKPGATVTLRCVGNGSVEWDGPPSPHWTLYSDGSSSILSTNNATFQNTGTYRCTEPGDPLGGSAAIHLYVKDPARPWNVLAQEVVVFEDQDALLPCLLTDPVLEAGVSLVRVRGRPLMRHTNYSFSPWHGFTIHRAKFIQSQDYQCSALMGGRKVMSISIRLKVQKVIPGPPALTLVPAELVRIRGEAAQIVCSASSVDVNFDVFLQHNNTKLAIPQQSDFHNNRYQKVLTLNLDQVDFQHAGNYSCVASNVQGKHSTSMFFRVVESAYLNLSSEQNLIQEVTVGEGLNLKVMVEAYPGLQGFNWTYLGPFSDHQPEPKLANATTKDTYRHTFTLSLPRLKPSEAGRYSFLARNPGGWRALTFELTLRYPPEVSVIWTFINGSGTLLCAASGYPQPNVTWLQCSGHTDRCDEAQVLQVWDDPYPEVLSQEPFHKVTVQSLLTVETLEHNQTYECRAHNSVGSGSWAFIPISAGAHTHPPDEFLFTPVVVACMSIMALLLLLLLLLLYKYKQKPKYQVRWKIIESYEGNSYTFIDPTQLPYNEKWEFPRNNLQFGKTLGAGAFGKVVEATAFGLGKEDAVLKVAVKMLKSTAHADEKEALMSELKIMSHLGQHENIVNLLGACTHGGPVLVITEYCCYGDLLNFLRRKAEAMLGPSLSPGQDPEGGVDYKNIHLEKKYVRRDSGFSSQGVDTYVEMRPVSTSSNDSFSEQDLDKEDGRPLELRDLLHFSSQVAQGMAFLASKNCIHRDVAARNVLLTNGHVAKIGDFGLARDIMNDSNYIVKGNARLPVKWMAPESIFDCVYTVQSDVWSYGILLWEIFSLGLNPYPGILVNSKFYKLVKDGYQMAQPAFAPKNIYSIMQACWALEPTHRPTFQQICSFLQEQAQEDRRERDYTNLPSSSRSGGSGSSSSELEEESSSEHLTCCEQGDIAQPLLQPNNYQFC
Sequence of Abl (h) (P00519 whole entry): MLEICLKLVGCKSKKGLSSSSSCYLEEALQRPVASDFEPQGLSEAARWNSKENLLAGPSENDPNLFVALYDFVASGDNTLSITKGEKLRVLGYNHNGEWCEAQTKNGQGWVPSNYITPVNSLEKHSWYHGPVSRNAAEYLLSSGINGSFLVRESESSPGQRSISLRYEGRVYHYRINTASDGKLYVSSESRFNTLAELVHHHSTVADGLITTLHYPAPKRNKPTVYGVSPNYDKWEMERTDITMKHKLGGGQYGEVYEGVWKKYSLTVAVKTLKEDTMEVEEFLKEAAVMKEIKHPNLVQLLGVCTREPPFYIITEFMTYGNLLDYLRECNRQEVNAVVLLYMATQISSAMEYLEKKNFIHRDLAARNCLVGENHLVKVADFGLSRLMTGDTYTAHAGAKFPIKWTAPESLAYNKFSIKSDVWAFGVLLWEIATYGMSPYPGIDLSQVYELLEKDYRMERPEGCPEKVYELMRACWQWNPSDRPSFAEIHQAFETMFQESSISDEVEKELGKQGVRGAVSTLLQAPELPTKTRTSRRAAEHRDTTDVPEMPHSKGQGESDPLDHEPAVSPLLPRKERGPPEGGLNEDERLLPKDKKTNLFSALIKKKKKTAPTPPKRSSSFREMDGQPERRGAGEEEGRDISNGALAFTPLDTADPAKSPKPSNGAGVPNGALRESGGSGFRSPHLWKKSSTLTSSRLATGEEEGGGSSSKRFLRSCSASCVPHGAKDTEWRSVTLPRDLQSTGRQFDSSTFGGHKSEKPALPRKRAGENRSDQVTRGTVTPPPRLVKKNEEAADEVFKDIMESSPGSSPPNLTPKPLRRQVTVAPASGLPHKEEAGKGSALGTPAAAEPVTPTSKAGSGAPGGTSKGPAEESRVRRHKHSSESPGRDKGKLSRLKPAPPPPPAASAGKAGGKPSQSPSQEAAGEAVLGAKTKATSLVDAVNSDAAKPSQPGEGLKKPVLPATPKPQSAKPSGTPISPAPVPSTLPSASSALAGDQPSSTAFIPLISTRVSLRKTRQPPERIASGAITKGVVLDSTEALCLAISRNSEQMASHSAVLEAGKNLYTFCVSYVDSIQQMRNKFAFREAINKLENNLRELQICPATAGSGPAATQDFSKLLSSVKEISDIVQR
Sequence of Fes (h) (P07332 whole entry): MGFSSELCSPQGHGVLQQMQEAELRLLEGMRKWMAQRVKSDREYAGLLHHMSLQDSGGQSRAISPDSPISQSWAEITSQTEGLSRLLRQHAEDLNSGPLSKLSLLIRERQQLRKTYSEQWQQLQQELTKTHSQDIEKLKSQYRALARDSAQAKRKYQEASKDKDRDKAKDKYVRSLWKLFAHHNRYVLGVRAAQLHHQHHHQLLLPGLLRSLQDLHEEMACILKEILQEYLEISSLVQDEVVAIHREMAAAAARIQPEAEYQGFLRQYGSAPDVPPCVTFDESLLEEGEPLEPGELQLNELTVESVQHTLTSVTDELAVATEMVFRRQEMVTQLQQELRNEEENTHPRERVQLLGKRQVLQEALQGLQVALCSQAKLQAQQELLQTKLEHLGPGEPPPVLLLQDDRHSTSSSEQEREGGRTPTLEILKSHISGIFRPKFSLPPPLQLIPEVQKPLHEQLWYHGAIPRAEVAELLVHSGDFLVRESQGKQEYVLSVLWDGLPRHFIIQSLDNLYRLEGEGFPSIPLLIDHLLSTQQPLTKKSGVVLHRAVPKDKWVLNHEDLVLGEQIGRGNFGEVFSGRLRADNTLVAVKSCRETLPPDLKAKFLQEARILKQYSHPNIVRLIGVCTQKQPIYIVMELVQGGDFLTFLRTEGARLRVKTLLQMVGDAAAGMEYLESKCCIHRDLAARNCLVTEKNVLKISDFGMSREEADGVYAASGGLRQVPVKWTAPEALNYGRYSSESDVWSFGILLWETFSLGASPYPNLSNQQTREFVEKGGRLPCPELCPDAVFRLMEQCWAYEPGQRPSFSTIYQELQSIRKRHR

Row | Compound | inhibition at 1 µM (Abl (h)) [%] | inhibition at 1 µM (cSRC (h)) [%] | inhibition at 1 µM (EGFR (h)) [%] | inhibition at 1 µM (Fes (h)) [%] | inhibition at 1 µM (Fms (h)) [%] | inhibition at 1 µM (Lck (h)) [%] | inhibition at 1 µM (Yes (h)) [%] | C1 score (inhibition of Abl human) (Abl (h)) | C3 score (inhibition of cSRC human) (cSRC (h)) | C4 score (inhibition of EGFR human) (EGFR (h)) | C4 score (inhibition of Fes human) (Fes (h)) | C7 score (inhibition of Fms human) (Fms (h)) | C9 score (inhibition of Lck human) (Lck (h)) | C11 score (inhibition of Yes human) (Yes (h))
1 | COc1ccc2cc1OCCCCCCCOc1ccc(Br)cc1Nc1cc(ncn1)N2 [Compound 37, 1H,7H-2,6: 12,8-dimetheno-14H-13,21,1,3,5,7-benzodioxatetraazacyclotricosine, 24-bromo-15,16,17,18,19,20-hexahydro-11-methoxy-] | – | – | – | – | – | – | – | 2 (Score 2=30-60% inhibition) | 1 (Score 1=10-30% inhibition) | 3 (Score 3=60-80% inhibition) | 1 (Score 1=10-30% inhibition) | 1 (Score 1=10-30% inhibition) | 2 (Score 2=30-60% inhibition) | 1 (Score 1=10-30% inhibition)
2 | CC1(C)NC(=O)Cc2ccc(Cl)cc2Nc2cc(ncn2)Nc2ccc(OCCCN3CCOCC3)c(c2)OCCNC1=O [Compound 106, 1H,7H-6,2:8,12-dimetheno-13,1,3,5,7,16,19-benzoxahexaazacyclotricosine-17,20(14H)-dione, 24-chloro-15,16,18,19,21-pentahydro-18,18-dimethyl-11-[3-(4-morpholinyl)propoxy]-] | > 80 | > 80 | > 80 | > 80 | 10 to 30 | > 80 | > 80 | – | – | – | – | – | – | –
3 | 12,8-metheno-6,2-nitrilo-7H-13,1,5,7,16,19-benzoxapentaazacyclodocosine-3-carbonitrile, 23-chloro-1,14,15,16,17,18,19,20-octahydro-11-methoxy-19-methyl-17-oxo- [Compound 32] | – | – | – | – | – | – | – | 3 (Score 3=60-80% inhibition) | 4 (Score 4=>80% inhibition) | 4 (Score 4=>80% inhibition) | 4 (Score 4=>80% inhibition) | 1 (Score 1=10-30% inhibition) | 4 (Score 4=>80% inhibition) | 4 (Score 4=>80% inhibition)
4 | COc1ccc2cc1OCCCCCCOc1ccc(Br)cc1Nc1cc(ncn1)N2 [Compound 36, 1H,7H-2,6: 12,8-dimetheno-13,20,1,3,5,7-benzodioxatetraazacyclodocosine, 23-bromo-14,15,16,17,18,19-hexahydro-11-methoxy-] | – | – | – | – | – | – | – | 2 (Score 2=30-60% inhibition) | 1 (Score 1=10-30% inhibition) | 4 (Score 4=>80% inhibition) | 1 (Score 1=10-30% inhibition) | 1 (Score 1=10-30% inhibition) | 2 (Score 2=30-60% inhibition) | 1 (Score 1=10-30% inhibition)
5 | COc1ccc2cc1OCCCNC(=O)C(C)(C)NC(=O)Cc1ccc(Cl)cc1Nc1cc(ncn1)N2 [Compound 105, 6,2:8,12-dimetheno-7H-13,1,3,5,7,17,20-benzoxahexaazacyclotetracosine-18,21-dione, 25-chloro-1,14,15,16,17,19,20,22-octahydro-11-methoxy-19,19-dimethyl-] | > 80 | > 80 | > 80 | 60 to 80 | 10 to 30 | > 80 | > 80 | – | – | – | – | – | – | –
6 | COc1ccc2cc1OCCNC(=O)CNC(=O)Cc1ccc(Cl)cc1Nc1cc(ncn1)N2 [Compound 103, 1H,7H-6,2:12,8-dimetheno-13,1,3,5,7,16,19-benzoxahexaazacyclotricosine-17,20(14H)-dione, 24-chloro-15,16,18,19,21-pentahydro-11-methoxy-] | > 80 | > 80 | > 80 | 60 to 80 | – | > 80 | > 80 | – | – | – | – | – | – | –
7 | 1H,7H-2,6: 12,8-dimetheno-14H-13,19,1,3,5,7-benzodioxatetraazacycloheneicosine, 22-bromo-15,16,17,18-tetrahydro-11-methoxy- [Compound 35] | – | – | – | – | – | – | – | 4 (Score 4=>80% inhibition) | 1 (Score 1=10-30% inhibition) | 2 (Score 2=30-60% inhibition) | 1 (Score 1=10-30% inhibition) | 2 (Score 2=30-60% inhibition) | 2 (Score 2=30-60% inhibition) | 3 (Score 3=60-80% inhibition)
8 | COc1ccc2c(c1)OCCCCCCOc1ccc(Cl)cc1Nc1cc(ncn1)N2 [Compound 34, 11H-6,10-metheno-5H-dibenzo[b,k][1,13,4,6,8,10]dioxatetraazacyclononadecine, 13-chloro-17,18,19,20,21,22-hexahydro-2-methoxy-] | – | 10 to 30 | 30 to 60 | 10 to 30 | 10 to 30 | 10 to 30 | 10 to 30 | – | – | – | – | – | – | –

The next lines start with results.

Row | inhibition at 1 µM (Abl (h)) [%] | inhibition at 1 µM (cSRC (h)) [%] | inhibition at 1 µM (EGFR (h)) [%] | inhibition at 1 µM (Fes (h)) [%] | inhibition at 1 µM (Fms (h)) [%] | inhibition at 1 µM (Lck (h)) [%] | inhibition at 1 µM (Yes (h)) [%] | Compound | C1 score (inhibition of Abl human) (Abl (h)) | C3 score (inhibition of cSRC human) (cSRC (h)) | C4 score (inhibition of EGFR human) (EGFR (h)) | C4 score (inhibition of Fes human) (Fes (h)) | C7 score (inhibition of Fms human) (Fms (h)) | C9 score (inhibition of Lck human) (Lck (h)) | C11 score (inhibition of Yes human) (Yes (h))
9 | 10 to 30 | 10 to 30 | 10 to 30 | 60 to 80 | 30 to 60 | 30 to 60 | 10 to 30 | N#Cc1cnc2nc1Nc1cccc(c1)OCC(=O)NCCCOc1cccc(c1)N2 [Compound 25, 14,21-dioxa-2,4,8,17,28-pentaazatetracyclo[20.3.1.1~3,7~.1~9,13~]octacosa-1(26),3,5,7(28),9,11,13(27),22,24-nonaene-6-carbonitrile, 16-oxo-] | – | – | – | – | – | – | –
10 | 10 to 30 | 10 to 30 | 10 to 30 | 30 to 60 | 30 to 60 | 10 to 30 | 10 to 30 | N#Cc1cnc2nc1Nc1cccc(c1)OCC(=O)NCCCCOc1cccc(c1)N2 [Compound 26, 14,22-dioxa-2,4,8,17,29-pentaazatetracyclo[21.3.1.1~3,7~.1~9,13~]nonacosa-1(27),3,5,7(29),9,11,13(28),23,25-nonaene-6-carbonitrile, 16-oxo-] | – | – | – | – | – | – | –
11 | 10 to 30 | 30 to 60 | – | 10 to 30 | 30 to 60 | 30 to 60 | 60 to 80 | N#Cc1cnc2nc1Nc1cccc(c1)OCCCNC(=O)COc1cccc(c1)N2 [Compound 28, 14,21-dioxa-2,4,8,18,28-pentaazatetracyclo[20.3.1.1~3,7~.1~9,13~]octacosa-1(26),3,5,7(28),9,11,13(27),22,24-nonaene-6-carbonitrile, 19-oxo-] | – | – | – | – | – | – | –
